Measurements published in PubChem BioAssay AID743092 (The Scripps Research Institute Molecular Screening Center, 2013).
The source made the active and inactive calls. The rule behind the calls is not given here.

tested on: counterscreen cell line, fluorescence, non-specific activators; assay: non-specific activators in counterscreen cell line, dose response, counter-screen for GalR3 antagonist project, fluorescence, late stage (AID 743092)

Row | SMILES | IC50
1 | CCOc1cc(S(=O)(=O)NCc2ccncc2)ccc1Cl | > 29.9 µM (inactive)
2 | COc1cccc2[nH]c3c(N4CCC(C)CC4)ncnc3c12 | > 29.9 µM (inactive)
3 | CCOC(=O)Cc1csc(NC(=O)c2cc(=O)c3ccccc3o2)n1 | > 29.9 µM (inactive)
4 | Cc1nn(C)c(Cl)c1NC(=O)OCc1ccc(Cl)cc1Cl | > 29.9 µM (inactive)
5 | CC(=O)c1cn(CC(=O)NCCc2c[nH]c3ccccc23)c2ccccc12 | > 29.9 µM (inactive)
6 | CC1CC(=O)NN=C1c1ccc(N)c([N+](=O)[O-])c1 (configuration not stated) | > 29.9 µM (inactive)
7 | N#Cc1cc(-c2ccccc2)oc1NC(=O)c1ccco1 | > 29.9 µM (inactive)
8 | O=C(Nc1nc(-c2ccc(Cl)cc2Cl)cs1)c1ccc(OCC2CCCO2)cc1 (configuration not stated) | > 29.9 µM (inactive)
9 | CCCCc1ccc(NC(=O)c2ccc(N(C)S(C)(=O)=O)cc2)cc1 | > 29.9 µM (inactive)
10 | Cc1cc(C(=O)CSc2nc(N)cc(=O)[nH]2)c(C)n1-c1ccc(OC(F)F)cc1 | > 29.9 µM (inactive)
11 | Fc1ccc(NC(=S)N2CCCN(c3ccc(C(F)(F)F)cn3)CC2)c(F)c1 | > 29.9 µM (inactive)
12 | CCOC(=O)c1[nH]c2ccc(OC)cc2c1NS(=O)(=O)c1ccc(Cl)s1 | > 29.9 µM (inactive)
13 | Nc1cc(-c2ccc(Br)cc2)nn1Cc1ccccc1 | > 29.9 µM (inactive)
14 | Cc1cc(C)nc(SCC(=O)Nc2ccnc3ccccc23)n1 | > 29.9 µM (inactive)
15 | CC(=O)c1ccc(N2CCN(C(=S)Nc3ccc(Oc4ccccc4)cc3)CC2)cc1 | > 29.9 µM (inactive)
16 | CCCCCn1c(=O)[nH]c2cc(C(=O)N3CCN(Cc4ccc5c(c4)OCO5)CC3)ccc2c1=O | > 29.9 µM (inactive)
17 | CCCOc1ccc(CSc2nc3ccccc3[nH]2)cc1 | > 29.9 µM (inactive)
18 | COc1ccc(OC)c(CCNC(=O)Cn2nc(C)c3c(C)n(-c4ccc(C)cc4)nc3c2=O)c1 | > 29.9 µM (inactive)
19 | COc1ccc(NS(=O)(=O)c2ccc(NC(=O)c3ccc(CN4CCOCC4)cc3)cc2)cc1 | > 29.9 µM (inactive)

Row | SMILES | IC50
20 | Cc1cccc(Cl)c1NC(=O)N1CCCN(c2nc3ccc(Cl)cc3s2)CC1 | > 29.9 µM (inactive)
21 | CC(=O)c1c(C)[nH]c(C(=O)COc2cc(C)ccc2C(C)C)c1C | > 29.9 µM (inactive)
22 | COc1ccc(CN2CCC(C(=O)Nc3ccc(Oc4ccccc4)nc3)CC2)cc1F | > 29.9 µM (inactive)
23 | O=C(CSc1nnnn1C1CC2CCC1C2)Nc1ccnc2ccccc12 (configuration not stated) | > 29.9 µM (inactive)
24 | O=S(=O)(NCc1ccncc1)c1ccc(Br)s1 | > 29.9 µM (inactive)
25 | Cc1cc(CSc2ccccc2)ccc1NC(=O)c1ccc(CN2CCOCC2)cc1 | > 29.9 µM (inactive)
26 | CCCOC(=O)c1ccc(OCC(O)Cn2c(C)nc3ccccc32)cc1 (configuration not stated) | > 29.9 µM (inactive)
27 | O=C(CSc1nnc(Cn2nnc3ccccc32)o1)N(Cc1ccc(F)cc1)c1ccccc1 | > 29.9 µM (inactive)
28 | COc1cc2c(cc1OC)[C@@H]1C(=O)c3ccc4c(c3O[C@@H]1CO2)C[C@H](C(C)C)O4 | > 29.9 µM (inactive)
29 | CNc1ccccc1C(C)(C)c1cc(-c2ccc(F)cc2)no1 | 19.6 µM (inactive)
30 | CC(C)(C)CN1CCN(Cc2nc(-c3ccc(F)cc3)cs2)CC1CCO (configuration not stated) | > 29.9 µM (inactive)
31 | Nc1nonc1-n1nnc(C(=O)N/N=C/c2cc(Br)ccc2O)c1CSC1=NCCS1 | > 29.9 µM (inactive)
32 | Cn1nc(C(C)(C)C)cc1C(=O)NCc1ccc(N2CCCC2=O)cc1 | > 29.9 µM (inactive)
33 | Cc1ccc(Oc2ccc(OCC(=O)Nc3ccncc3)cc2)cc1 | > 29.9 µM (inactive)
34 | COc1ccc(CN(C)c2ccc(S(=O)(=O)N3CCN(C)CC3)cc2[N+](=O)[O-])cc1OC | > 29.9 µM (inactive)
35 | CCOc1nc(C#N)nc(N2CCCCC2)n1 | > 29.9 µM (inactive)
36 | CC(C)(C)c1ccc(C(=O)Nc2ccc(Oc3cccnc3)nc2)cc1 | > 29.9 µM (inactive)
37 | Cc1nn(C)c(Nc2ccc(Br)cc2)c1Br | > 29.9 µM (inactive)
38 | Cc1oc(-c2ccc(Cl)cc2)nc1CSCC(=O)NC1CCN(Cc2ccccc2)CC1 | 26.8 µM (inactive)

Row | SMILES | IC50
39 | NC(=O)c1c(-c2ccc(Cl)cc2Cl)csc1NC(=O)Cc1ccccc1 | > 29.9 µM (inactive)
40 | Cc1nc2ccccc2n1Cc1ccc(Cl)cc1 | > 29.9 µM (inactive)
41 | Cc1nn(C)c(C)c1CN(C)S(=O)(=O)c1ccc2ccccc2c1 | > 29.9 µM (inactive)
42 | O=C(COc1ccc(C(=O)c2ccccc2)cc1)Nc1cccnc1 | > 29.9 µM (inactive)
43 | COc1ccc(C(=O)CSc2nnc(Cn3cnc4ccccc43)o2)cc1 | > 29.9 µM (inactive)
44 | CCN(CC)S(=O)(=O)c1cc(NC(=O)CNc2cccc(S(=O)(=O)N3CCOCC3)c2)ccc1C | > 29.9 µM (inactive)
45 | Cc1ccccc1Cn1c(C)nc2ccccc21 | > 29.9 µM (inactive)
46 | Cc1ccccc1-c1cc(C(=O)Nc2sc(C(=O)OC(C)C)c(C)c2C#N)c2ccccc2n1 | > 29.9 µM (inactive)
47 | COc1ccc(CCNc2ncnc3sccc23)cc1OC | > 29.9 µM (inactive)
48 | O=C(Cc1ccc(Cl)cc1Cl)Nc1ccncc1Cl | > 29.9 µM (inactive)
49 | COc1ccc(-n2c(C)cc(C(=O)COC(=O)Cn3cnc4ccccc43)c2C)cc1 | > 29.9 µM (inactive)
50 | COc1cc(CSc2nnnn2-c2ccc(C)cc2)cc(OC)c1OC | > 29.9 µM (inactive)
51 | CC1(C)CC2CC(C)(CN2S(=O)(=O)c2ccc(C(=O)Nc3cccc(S(=O)(=O)N4CCOCC4)c3)cc2)C1 (configuration not stated) | > 29.9 µM (inactive)
52 | S=C(NCCc1ccccc1)Nc1cccc2cnccc12 | > 29.9 µM (inactive)
53 | CC(C)(C)c1ccc(-n2ncc3c2CCCC3NC(=O)C2(C(N)=O)CC2)cc1 (configuration not stated) | > 29.9 µM (inactive)
54 | Cc1[nH]c(=O)c(C#N)cc1-c1ccccc1 | > 29.9 µM (inactive)
55 | CSc1ccc(C(=O)C2CCCN(C(=O)CCc3c(C)nn(C)c3C)C2)cc1 (configuration not stated) | > 29.9 µM (inactive)
56 | CC(C)(C)NC(=O)COC(=O)c1snc(C(=O)NC2CCCCC2)c1N | > 29.9 µM (inactive)
57 | NC(=O)c1nnn(Cc2cc(Cl)c(C(=O)c3ccc(Cl)cc3)c(Cl)c2)c1N | > 29.9 µM (inactive)
